This is an account of results in BindingDB's records for PubMed 35777718 (Wuxi Apptec, 2022).

This experiment in a line: Inhibition of Kir2.1 (unknown origin).

A value given as a limit tells only on which side of the number the result lay.

In general, IC50 refers to the concentration at which inhibition is half-maximal. As for `C[C@]1(CN2Cc3nc(-c4ccc(F)cc4)sc3C2)CN=C(N)O1`, the IC50 is > 13.3 µM.

Take `C[C@]1(CN2Cc3nc(-c4ccc(F)cc4)sc3C2)Cn2cc([N+](=O)[O-])nc2O1`: the IC50 was > 40 µM.
